Measured values: US20030073731A1, “Compositions and methods of the use thereof achiral analogues of CC-1065 and the duocarmycins” (priority 2000, published 2003)
Like-named read-outs stand apart in the source and are kept apart here.

What was measured:
[1] = tested on: 786-0
[2] = tested on: OVCAR-5; format: cell-based, human
[3] = tested on: OVCAR-4; format: cell-based, human
[4] = tested on: SK-MEL-5
[5] = tested on: M14
[6] = tested on: SF-295
[7] = tested on: HCT-116
[8] = tested on: UACC-257
[9] = tested on: ACHN
[10] = tested on: HOP-62
[11] = tested on: HT29
[12] = tested on: HCC-2998
[13] = tested on: UACC-62
[14] = tested on: U251
[15] = tested on: NCI-H332M
[16] = tested on: SK-OV-3
[17] = tested on: HCT-15
[18] = tested on: NCI-H226
[19] = tested on: UO-31
[20] = tested on: RPMI-8226; experiment: cells; conditions: Homo sapiens
[21] = tested on: TK-10; experiment: cells; conditions: Homo sapiens
[22] = tested on: HL-60 (TB); experiment: NCI in-vitro cytotoxicity screen, Leukemia panel; format: cell-based, human
Procedure: (§1) The compounds of this invention were also tested against the panel of 60 human cancer cell lines at the National Cancer Institute, Bethesda, Md. […] The cytotoxicity studies were conducted using a 48 hour exposure, and measuring the optical density of sulforhodamine B-derived color.

[23] = tested on: SNB-75; experiment: cells; conditions: Homo sapiens
[24] = tested on: A498; experiment: NCI in-vitro cytotoxicity screen, Renal Cancer panel; format: cell-based; conditions: Homo sapiens
Procedure: as §1

[25] = tested on: UACC-62; experiment: cells; conditions: Homo sapiens
[26] = tested on: MDA-MB-435; experiment: cells; conditions: Homo sapiens
[27] = tested on: SK-MEL-5; experiment: cells; conditions: Homo sapiens
[28] = tested on: NCI-H460; experiment: NCI in-vitro cytotoxicity screen, Non-Small Cell Lung Cancer panel; format: cell-based; conditions: Homo sapiens
Procedure: as §1

[29] = tested on: HCT-15; experiment: cells; conditions: Homo sapiens
[30] = tested on: HS 578T; experiment: cells; conditions: Homo sapiens
[31] = tested on: NCI-H226; experiment: cells; conditions: Homo sapiens
[32] = tested on: KM12; experiment: cells; conditions: Homo sapiens
[33] = tested on: SK-MEL-2; experiment: cells; conditions: Homo sapiens
[34] = tested on: HCC-2998; experiment: cells; conditions: Homo sapiens
[35] = tested on: UACC-257; experiment: cells; conditions: Homo sapiens
[36] = tested on: SK-OV-3; experiment: cells; conditions: Homo sapiens
[37] = tested on: A549/ATCC; experiment: cells; conditions: Homo sapiens, A549, read-out: LC50
[38] = tested on: SNB-19; experiment: cells; conditions: Homo sapiens

Compound: 4-(2-Chloroethyl)-3-[5-(5-benzofuran-2-carboxamido)indole-2-carboxamido]phenol [Compound 1]
- GI50 [1]: 2620 nM
- TGI [1]: 1.07E-05 Molar
- GI50 [2]: 2280 nM
- TGI [2]: 5.80E-06 Molar
- GI50 [3]: 2390 nM
- TGI [3]: 5.06E-06 Molar
- GI50 [4]: 1730 nM
- TGI [4]: 3.34E-06 Molar
- GI50 [5]: 1490 nM
- TGI [5]: 3.19E-06 Molar
- GI50 [6]: 2320 nM
- TGI [6]: 6.46E-06 Molar
- GI50 [7]: 1940 nM
- TGI [7]: 5.73E-06 Molar
- GI50 [8]: 1880 nM
- TGI [8]: 3.40E-06 Molar
- GI50 [9]: 1530 nM
- TGI [9]: 5.55E-06 Molar
- GI50 [10]: 453 nM
- TGI [10]: 3.07E-06 Molar
- GI50 [11]: 2290 nM
- TGI [11]: 1.115E-05 Molar
- GI50 [12]: 1760 nM
- TGI [12]: 3.56E-06 Molar
- GI50 [13]: 1970 nM
- TGI [13]: 3.49E-06 Molar
- GI50 [14]: 2410 nM
- TGI [14]: 1.23E-05 Molar
- GI50 [15]: 2830 nM
- TGI [15]: 9.60E-06 Molar
- GI50 [16]: 2930 nM
- TGI [16]: 7.66E-06 Molar
- GI50 [17]: 1910 nM
- TGI [17]: 4.89E-06 Molar
- GI50 [18]: 4090 nM
- TGI [18]: 1.62E-05 Molar
- GI50 [19]: 3000 nM
- TGI [19]: 6.38E-06 Molar

Compound: COC(=O)c1[nH]c2c(O)cc(NC(=O)c3cc4cc(OC)c(OC)c(OC)c4[nH]3)c(CCCl)c2c1C(=O)OC [Compound 22, Dimethyl 4-(2-chloroethyl)-7-hydroxy-5-(5,6,7-trimethoxyindole-2-carboxamido)indole-2,3-dicarboxylate]
- GI50 ([20]; RPMI-8226): 190 nM
- CC50 ([20]; RPMI-8226, read-out: LC50): > 50000 nM
- GI50 ([21]; TK-10): 272 nM
- CC50 ([21]; TK-10, read-out: LC50): > 50000 nM
- Percent Growth ([22]; HL-60 (TB), Log10 Concentration −4.3): 3%
- Percent Growth ([22]; HL-60 (TB), Log10 Concentration −5.3): 9%
- CC50 ([22]; Homo sapiens, HL-60, read-out: LC50): > 50000 nM
- GI50 ([22]; Homo sapiens, HL-60 (TB)): 60.4 nM
- GI50 ([23]; SNB-75): 62.8 nM
- CC50 ([23]; SNB-75, read-out: LC50): 711 nM
- GI50 ([24]; A498): 164 nM
- CC50 ([24]; A498, read-out: LC50): 20700 nM
- GI50 ([25]; UACC-62): 78.2 nM
- CC50 ([25]; UACC-62, read-out: LC50): 436 nM
- GI50 ([26]; MDA-MB-435): 137 nM
- CC50 ([26]; MDA-MB-435, read-out: LC50): > 50000 nM
- GI50 ([27]; SK-MEL-5): 32.3 nM
- CC50 ([27]; SK-MEL-5, read-out: LC50): > 50000 nM
- GI50 [28]: 114 nM
- GI50 ([29]; HCT-15): 259 nM
- CC50 ([29]; HCT-15, read-out: LC50): > 50000 nM
- GI50 [30]: 138 nM
- CC50 ([30]; read-out: LC50): 946 nM
- GI50 ([31]; NCI-H226): 74.8 nM
- CC50 ([31]; NCI-H226, read-out: LC50): 2550 nM
- GI50 ([32]; KM12): 87.4 nM
- CC50 ([32]; KM12, read-out: LC50): 474 nM
- GI50 ([33]; SK-MEL-2): 83.9 nM
- CC50 ([33]; SK-MEL-2, read-out: LC50): 339 nM
- GI50 ([34]; HCC 2998): 102 nM
- CC50 ([34]; HCC 2998, read-out: LC50): 10800 nM
- GI50 ([35]; UACC-257): 170 nM
- CC50 ([35]; UACC-257, read-out: LC50): > 50000 nM
- GI50 ([36]; SK-OV-3): 269 nM
- CC50 ([36]; SK-OV-3, read-out: LC50): 44600 nM
- CC50 [37]: < 50000 nM
- GI50 ([38]; SNB-19): 173 nM
- CC50 ([38]; SNB-19, read-out: LC50): > 50000 nM
